Laboratory results from patent US7919101B2 (priority 2008, dated 2011).
Like-named read-outs stand apart in the source and are kept apart here. Residues, ends and D or L forms follow the SMILES beside them. No end group written: not given here.

Assays:
HIV-1 = conditions: cited from earlier work
[1] = test system: HIV-1 Env-mediated cell-cell fusion; conditions: cited from earlier work
gp41 6-HB formation = gp41 6-HB formation (Human immunodeficiency virus type 1 group M subtype B, UniProt P04578); conditions: cited from earlier work
gp41 6-HB formation, sequence (P04578 546-581): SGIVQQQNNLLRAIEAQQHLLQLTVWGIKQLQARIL

[2] = test system: HIV-1-mediated cell-cell fusion (H9/HIV-1IIIB cells and MT-2 cells); test: HIV-1-mediated cell-cell fusion, dye transfer assay; assay type: cell-based
Procedure: The inhibitory activities of the compounds on HIV-induced cell-cell fusion were determined using a dye transfer assay (Jiang S et al. Proc SPIE 3926:212-219, 2000). Briefly, H9/HIV-1IIIB cells were pre-labeled with a fluorescent dye, Calcein AM (Molecular Probes, Inc.), and incubated with a testing compound at a graded concentration at 37° C. for 30 min in a 96-well cell culture plate. Then the CD4^+ MT-2 cells were added to the H9/HIV-1IIIB cells at a ratio of 10:1, followed by incubation at 37° C. for 2 hrs. The fused and unfused calcein-labeled HIV-1-infected cells were counted under an inverted fluorescence microscope with an eyepiece micrometer disc.

[3] = cited from earlier work
[4] = in combination T-20:Sifuvirtide (4:1)
[5] = in combination T-20:Sifuvirtide (4:1) vs alone

In the case of COc1ccc(S(=O)(=O)[O-])cc1N=Nc1c(S(=O)(=O)[O-])cc2cc(Nc3nc(Nc4ccccc4)nc(Nc4cc(C)c(N=Nc5cc(S(=O)(=O)[O-])cc6cc(S(=O)(=O)[O-])cc(O)c56)cc4OC)n3)ccc2c1O.[Na+].[Na+].[Na+].[Na+] [ADS-J1], the “EC50, HIV infection / replication (in words)” value (HIV-1) is given as “low μM range”, the “EC50, HIV-1 mediated cell-cell fusion (in words)” value [1] is given as “low μM range” and the “EC50, gp41 6-HB formation (in words)” value (gp41 6-HB formation) is given as “low μM range”.

With CC[C@H](C)[C@H](NC(=O)[C@H](CCC(=O)O)NC(=O)[C@H](CCCNC(=N)N)NC(=O)[C@H](CCC(=O)O)NC(=O)[C@H](Cc1c[nH]c2ccccc12)NC(=O)[C@@H](NC(=O)[C@H](CCC(=O)O)NC(=O)[C@H](Cc1c[nH]c2ccccc12)NC(=O)[C@@H](N)CO)[C@@H](C)O)C(=O)N[C@@H](CCC(=O)O)C(=O)N[C@@H](CC(N)=O)C(=O)N[C@@H](Cc1ccc(O)cc1)C(=O)N[C@H](C(=O)N[C@@H](CCCCN)C(=O)N[C@@H](CCC(N)=O)C(=O)N[C@H](C(=O)N[C@@H](Cc1ccc(O)cc1)C(=O)N[C@@H](CCCCN)C(=O)N[C@H](C(=O)N[C@@H](CC(C)C)C(=O)N[C@@H](CCC(=O)O)C(=O)N[C@@H](CCC(=O)O)C(=O)N[C@@H](CO)C(=O)N[C@@H](CCC(N)=O)C(=O)N[C@@H](CCC(=O)O)C(=O)N[C@@H](CCC(N)=O)C(=O)N[C@@H](CCC(N)=O)C(=O)N[C@@H](CC(=O)O)C(=O)N[C@@H](CCCNC(=N)N)C(=O)N[C@@H](CC(N)=O)C(=O)N[C@@H](CCC(=O)O)C(=O)N[C@@H](CCCCN)C(=O)N[C@@H](CC(=O)O)C(=O)N[C@@H](CC(C)C)C(=O)N[C@@H](CC(C)C)C(=O)N[C@@H](CCC(=O)O)C(=O)O)[C@@H](C)CC)[C@@H](C)CC)[C@@H](C)O [Sifuvirtide] (H-SWETWEREIENYTKQIYKILEESQEQQDRNEKDLLE-OH; N-terminus and C-terminus assumed) the “EC70 Concentration Mix” value [2, 4] was 0.589 nM, the “EC95 Concentration Mix” value [2, 4] was 0.884 nM and the “Potency increase at EC50” value [2, 5] was 35.424 fold. For the same compound, the “Potency increase at EC70” value [2, 5] was 35.075 fold, the “Potency increase at EC90” value [2, 5] was 34.771 fold and the “Potency increase at EC95” value [2, 5] was 34.564 fold. The EC50 ([2]; in combination T-20:Sifuvirtide (4:1), read-out: EC50 Concentration Mix) was 0.462 nM, the EC90 ([2]; in combination T-20:Sifuvirtide (4:1), read-out: EC90 Concentration Mix) was 0.75 nM and the “EC70 Concentration Alone” value ([2]; peptide tested alone) was 20.659 nM. The “EC95 Concentration Alone” value ([2]; peptide tested alone) was 30.555 nM, the EC50 ([2]; peptide tested alone, read-out: EC50 Concentration Alone) was 16.4 nM and the EC90 ([2]; peptide tested alone, read-out: EC90 Concentration Alone) was 26.1 nM. The decay half-life ([3]; multiple administration) was 26.0 ± 7.9 h and the decay half-life ([3]; single administration) was 20.0 ± 8.6 h.

In the case of “NHR-peptide, disulfide-stabilized helical trimer; SEQ ID NO:48 SGIVQQQNNLLRAIEAQQHLLQLTVWGIKQCCGR (not fully specified (bridges); also: disulfide-stabilized helical trimer) [N34ccg]”, the EC50 ([1]; read-out: EC50, HIV-induced cell-cell fusion) is listed as 95 nM.

In the case of “short all D-amino acid peptide; SEQ ID NO:24 KGACELLGWEWAWLCAA [D10-p5-2K]”, the “EC50, HIV infection / replication (in words)” value (HIV-1) is given as “low micromolar range”.

In the case of “short all D-amino acid peptide; SEQ ID NO:25 KGACDYPEWQWLCAA [PIE7]”, the “EC50, HIV infection / replication (in words)” value (HIV-1) is listed as “low micromolar range”.
